Experiments:
[1] = Metabolic stability test in liver S9; assay type: in vitro ADME; settings: pH 7.4, human liver S9 2 mg protein/mL, LC/MS; for remaining at 10 min: unchanged form after 10 minutes at 37°C, read-out: Remaining rate in human liver S9 (%/10min); for remaining at 1 h: unchanged form after 60 minutes at 37°C, read-out: Remaining rate in human liver S9 (%/60min)
In short: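 Compound from DMSO solution was incubated at 37°C with human liver S9 (final 2 mg protein/mL) in 100 mM potassium phosphate pH 7.4 with an NADPH-regenerating system for 0, 10 and 60 minutes. Reactions were stopped with acetonitrile/0.1% formic acid. Unchanged compound was measured by LC/MS as remaining rate (%) relative to zero time.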

[2] = Stability test in buffer (pH 7.4); assay type: physicochemical; settings: phosphate buffer/acetonitrile 7:3, 100 mM potassium phosphate buffer (pH 7.4) and acetonitrile 7:3 (v/v), LC/MS; for remaining at 10 min: 10 minutes at 37°C, read-out: Buf. remaining rate (%/10min); for remaining at 1 h: 60 minutes at 37°C, read-out: Buf. remaining rate (%/60min)
In short: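 Parent compound measured by LC/MS after 0, 10 or 60 min at 37°C in a 7:3 (v/v) mix of 100 mM potassium phosphate buffer and acetonitrile, with the reaction stopped by acetonitrile plus formic acid (final 0.1%). Percentage remaining is expressed relative to the zero-time amount.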

[3] = Metabolic stability test in plasma; assay type: in vitro ADME, human; settings: LC/MS; for remaining at 10 min: unchanged form after 10 minutes at 37°C in human plasma, read-out: Remaining rate in human plasma (%/10min); for remaining at 1 h: unchanged form after 60 minutes at 37°C in human plasma, read-out: Remaining rate in human plasma (%/60min)
In short: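 Remaining rate (%) versus zero time was derived from LC/MS measurement of parent compound after centrifugation. Plasma from human, mouse and hamster received DMSO-dissolved compound and was held at 37°C for 0, 10 or 60 minutes before acetonitrile containing formic acid (final 0.1%) stopped the reaction.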

| Compound | remaining at 10 min [1] [%] | remaining at 1 h [1] [%] | remaining at 10 min [2] [%] | remaining at 1 h [2] [%] | remaining at 10 min [3] [%] | remaining at 1 h [3] [%] |
| --- | --- | --- | --- | --- | --- | --- |
| CN(C)C(=O)c1cc(CCCC(=O)Oc2ccc(C(=O)OCc3cccc(Cl)c3)cc2)ccc1NC(=O)c1ccccc1-c1ccc(C(F)(F)F)cc1 [Compound 1-87, 4-[4-(3-dimethylcarbamoyl-4-{(4'-trifluoromethylbiphenyl-2-carbonyl)amino}phenyl)butyryloxy]benzoic acid 3-chlorobenzyl ester] | 11 | 2 | 100 | 104 | 60 | 2 |
| CCC(=O)c1ccc(OC(=O)CCCc2ccc(NC(=O)c3ccccc3-c3ccc(C(F)(F)F)cc3)c(C(=O)N(C)C)c2)cc1 [Compound 1-88, 4-(3-dimethylcarbamoyl-4-{(4'-trifluoromethylbiphenyl-2-carbonyl)amino}phenyl)butyric acid 4-propionylphenyl ester] | 0 | 0 | 102 | 101 | 39 | 0 |
| CN(C)C(=O)c1cc(CCCC(=O)Oc2ccc(C(=O)OCCOCc3ccccc3)cc2)ccc1NC(=O)c1ccccc1-c1ccc(C(F)(F)F)cc1 [Compound 1-89, 4-[4-(3-dimethylcarbamoyl-4-{(4'-trifluoromethylbiphenyl-2-carbonyl)amino}phenyl)butyryloxy]benzoic acid 2-benzyloxyethyl ester] | 6 | 3 | 102 | 104 | 49 | 0 |
| CN(C)C(=O)c1cc(CCCC(=O)Oc2ccc(C(=O)OCCCOCc3ccccc3)cc2)ccc1NC(=O)c1ccccc1-c1ccc(C(F)(F)F)cc1 [Compound 1-90, 4-[4-(3-dimethylcarbamoyl-4-{(4'-trifluoromethylbiphenyl-2-carbonyl)amino}phenyl)butyryloxy]benzoic acid 3-benzyloxypropyl ester] | 7 | 0 | 102 | 103 | 50 | 0 |
| CN(C)C(=O)c1cc(CCCC(=O)Oc2ccc(C(=O)OCCN3CCCC3=O)cc2)ccc1NC(=O)c1ccccc1-c1ccc(C(F)(F)F)cc1 [Compound 1-91, 4-[4-(3-dimethylcarbamoyl-4-{(4'-trifluoromethylbiphenyl-2-carbonyl)amino}phenyl)butyryloxy]benzoic acid 2-(2-oxopyrrolidin-1-yl)ethyl ester] | 0 | 0 | 100 | 105 | 31 | 0 |
| CN(C)C(=O)c1cc(CCCC(=O)Oc2ccc(C(=O)OCCCO)cc2)ccc1NC(=O)c1ccccc1-c1ccc(C(F)(F)F)cc1 [Compound 1-92, 4-[4-(3-dimethylcarbamoyl-4-{(4'-trifluoromethylbiphenyl-2-carbonyl)amino}phenyl)butyryloxy]benzoic acid 3-hydroxypropyl ester] | 0 | 0 | 102 | 107 | 71 | 6 |
| CCCC(=O)c1ccc(OC(=O)CCCc2ccc(NC(=O)c3ccccc3-c3ccc(C(F)(F)F)cc3)c(C(=O)N(C)C)c2)cc1 [Compound 1-93, 4-(3-dimethylcarbamoyl-4-{(4'-trifluoromethylbiphenyl-2-carbonyl)amino}phenyl)butyric acid 4-butyrylphenyl ester] | 4 | 0 | 107 | 109 | 52 | 0 |
